Experiments:
[1] = biological target: T1, nucleotide exchange on hKRASG12C mediated by hSOS1 (Homo sapiens, UniProt Q07889); assay: Guanine nucleotide exchange assay (GNEA, HTRF); type: biochemical; details: HIS-hSOS1 564-1049aa mediated GTP loading onto GST-hKRASG12C 1-169aa, read-out: Guanine nucleotide exchange inhibition IC50
T1 construct: HIS-hSOS1, 564-1049aa mediated GTP loading onto GST-hKRASG12C; His (N); made in house
T1 sequence (Q07889 564-1049): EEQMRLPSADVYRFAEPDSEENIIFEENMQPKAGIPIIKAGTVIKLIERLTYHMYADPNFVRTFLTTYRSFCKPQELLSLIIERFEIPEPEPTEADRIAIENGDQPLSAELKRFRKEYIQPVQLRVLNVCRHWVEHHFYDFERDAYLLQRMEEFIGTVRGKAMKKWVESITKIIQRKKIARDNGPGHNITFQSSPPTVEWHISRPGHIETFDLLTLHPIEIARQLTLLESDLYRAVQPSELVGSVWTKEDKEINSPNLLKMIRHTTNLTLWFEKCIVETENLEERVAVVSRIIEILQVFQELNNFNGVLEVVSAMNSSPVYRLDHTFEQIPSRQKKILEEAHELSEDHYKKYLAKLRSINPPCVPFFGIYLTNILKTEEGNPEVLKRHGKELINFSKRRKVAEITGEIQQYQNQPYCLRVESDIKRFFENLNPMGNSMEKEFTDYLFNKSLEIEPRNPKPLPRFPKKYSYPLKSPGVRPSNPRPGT
Experimental: Example-154: Guanine nucleotide exchange assay (GNEA) GNEA assay was conducted to evaluate the effects of compounds on the nucleotide exchange on hKRASG12C mediated by hSOS1. Inhibitory effect of compounds on HIS-hSOS1, 564-1049aa mediated GTP loading onto GST-hKRASG12C, 1-169aa both expressed and purified in-house was assessed using HTRF detection technology in biochemical assay. Compounds were pre-incubated with hSOS1 working solution containing 10-50 nM hSOS1 and 200 nM EDA-GTP-DY-647P1 (Custom manufactured, Jena Biosciences) per well of a 384 well plate (Perkin Elmer, Cat #6007290) for 10 min at 20° C. in the assay buffer containing 10 mM HEPES, pH 7.4, 150 mM NaCl, 5 mM MgCl2, 1 mM DTT, 0.05% BSA fraction V and 0.0025% Igepal. Reaction was initiated by adding working solution of hKRASG12C containing 25-125 nM hKRASG12C and MAb Anti-GST-Tb (#61GSTTLA, Cisbio BioAssays) in assay buffer. Total assay volume was 15 μL. Reaction was continued for 30-60 min at 20° C. HTRF signal was recorded in PHERAStar microplate reader. Ratio of signal obtained at 665 nm and 620 nm was used to compute the percent inhibition of compound as follows.

[2] = biological target: T2, protein-protein interaction between hSOS1 and hKRASG12C (Homo sapiens, UniProt Q07889); assay: KRAS-SOS1 interaction assay (HTRF); type: binding; details: GST-hSOS1 564-1049aa, HIS-hKRASG12C, read-out: KRAS-SOS1 Interaction inhibition IC50
T2 construct: GST-hSOS1, 564-1049aa expressed and purified in-house
T2 sequence (Q07889 564-1049): T1 sequence (Q07889 564-1049)
Experimental: Interaction assay was conducted to evaluate the ability of the compounds to disrupt the protein-protein interactions between hSOS1 and hKRASG12C. Inhibitory effect of compounds on GST-hSOS1, 564-1049aa expressed and purified in-house and HIS-hKRASG12C (R06-32DH, SignalChem) interaction was assessed using HTRF detection technology in biochemical assay. Compounds were pre-incubated with 10-50 nM working solution of hSOS1 per well of a 384 well plate (Perkin Elmer, Cat #6007290) for 10 min at 20° C. in the assay buffer containing 5 mM HEPES, pH 7.4, 150 mM NaCl, 10 mM EDTA, 1 mM DTT, 0.05% BSA fraction V and 0.0025% Igepal. Reaction was initiated by adding 100-300 nM working solution of hKRASG12C in assay buffer. Total assay volume was 15 μL. Reaction was continued for 30-60 min at 20° C. Then detection solution containing MAb Anti-GST-d2 (#61GSTDLA, Cisbio BioAssays) and MAb Anti-HIS-Tb (#61HISTLA, Cisbio BioAssays), all prepared in HTRF detection buffer (#61DB10RDF, Cisbio BioAssays) was added and further incubated for 30-60 min at 20° C. HTRF signal was recorded in PHERAStar microplate reader. Ratio of signal obtained at 665 nm and 620 nm was used to compute the percent inhibition of compound utilizing the following formula: […]

[3] = system: pERK after EGF stimulation in DLD1 cells; assay: ERK phosphorylation assay (alphascreen pERK); type: cell-based; details: Homo sapiens, DLD-1, 2 h compound, 200 ng/ml hEGF for 5 minutes, read-out: ERK phosphorylation inhibition IC50
Experimental: Compounds were tested for their ability to inhibit pERK after EGF stimulation in DLD1 cells. Cells were seeded at 0.2 million cells per well in 96 well cell binding tissue culture plate in 100 μL complete media and were allowed to settle overnight (16 to 20 h). On the following day, cells were treated with various concentrations of test compounds for 2 h followed by stimulation with 200 ng/ml hEGF (diluted in PBS) for 5 minutes. Cells were then washed once with PBS and lysed in freshly prepared lysis buffer (provided with alphascreen surefire ERK1/2 p-T202/Y204 assay kit, cat no: TGRESB10K, Perkin Elmer). Lysis was carried out in plate shaker for 10-15 mins. Lysate was transferred to […] white opti-plate (Perkin Elmer) and alphascreen for pERK was carried out as per manufacturer's instructions. Plate was read after 2 h incubation in plate shaker at […] 300 RPM, 25-28° C. The difference between the unstimulated and stimulated Vehicle control is considered as 100% ERK phosphorylation, and % inhibition of compounds is calculated accordingly.

Structure (SMILES)	IC50 [1] [nM]	IC50 [2] [nM]	IC50 [3] [nM]
CO[C@]1(C)C(=O)N(C)c2cc3nc(C)nc(N[C@H](C)c4cccc(C(F)(F)C(C)(C)O)c4F)c3cc21 (racemic) [Compound 96a, (S/R)-4-(((R)-1-(3-(1,1-difluoro-2-hydroxy-2-methylpropyl)-2-fluorophenyl)ethyl)amino)-6-methoxy-2,6,8-trimethyl-6,8-dihydro-7H-pyrrolo[3,2-g]quinazolin-7-one]	31 to 130	11 to 25	1 to 200
COCC1(C)C(=O)N(C)c2cc3c(N[C@H](C)c4cccc(C(F)(F)C(C)(C)O)c4F)nc(C)nc3cc21 (mixture of isomers) [Compound 98, (R&S)-4-(((R)-1-(3-(1,1-difluoro-2-hydroxy-2-methylpropyl)-2-fluorophenyl)ethyl)amino)-8-(methoxymethyl)-2,6,8-trimethyl-6,8-dihydro-7H-pyrrolo[2,3-g]quinazolin-7-one]	1 to 30	11 to 25	1 to 200
COC[C@@]1(C)C(=O)N(C)c2cc3c(N[C@H](C)c4cccc(C(F)(F)C(C)(C)O)c4F)nc(C)nc3cc21 (racemic) [Compound 98b, (S/R)-4-(((R)-1-(3-(1,1-difluoro-2-hydroxy-2-methylpropyl)-2-fluorophenyl)ethyl)amino)-8-(methoxymethyl)-2,6,8-trimethyl-6,8-dihydro-7H-pyrrolo[2,3-g]quinazolin-7-one]	31 to 130	11 to 25	1 to 200
Cc1nc(N[C@H](C)c2cccc(C(F)(F)C(C)(C)O)c2F)c2cc3c(cc2n1)C(C)C(=O)N3C (mixture of isomers) [Compound 99, (R&S)-4-(((R)-1-(3-(1,1-difluoro-2-hydroxy-2-methylpropyl)-2-fluorophenyl)ethyl)amino)-2,6,8-trimethyl-6,8-dihydro-7H-pyrrolo[2,3-g]quinazolin-7-one]	1 to 30	1 to 10	1 to 200
CCO[C@]1(C)C(=O)N(C)c2cc3c(N[C@H](C)c4cccc(C(F)(F)C(C)(C)O)c4F)nc(C)nc3cc21 (racemic) [Compound 121b, (S/R)-4-(((R)-1-(3-(1,1-difluoro-2-hydroxy-2-methylpropyl)-2-fluorophenyl)ethyl)amino)-8-ethoxy-2,6,8-trimethyl-6,8-dihydro-7H-pyrrolo[2,3-g]quinazolin-7-one]	1 to 30	1 to 10	1 to 200
CO[C@]1(C)C(=O)N(C)c2cc3c(N[C@H](C)c4cccc(C(F)(F)[C@](C)(O)CN(C)C)c4F)nc(C)nc3cc21 (racemic) [Compound 135a, (S/R)-4-(((R)-1-(3-((S/R)-3-(dimethylamino)-1,1-difluoro-2-hydroxy-2-methylpropyl)-2-fluorophenyl)ethyl)amino)-8-methoxy-2,6,8-trimethyl-6,8-dihydro-7H-pyrrolo[2,3-g]quinazolin-7-one]	1 to 30	1 to 10	1 to 200
CO[C@]1(C)C(=O)N(C)c2cc3c(N[C@H](C)c4cccc(C(F)(F)[C@@](C)(O)CN(C)C)c4F)nc(C)nc3cc21 (racemic) [Compound 135b, (S/R)-4-(((R)-1-(3-((R/S)-3-(dimethylamino)-1,1-difluoro-2-hydroxy-2-methylpropyl)-2-fluorophenyl)ethyl)amino)-8-methoxy-2,6,8-trimethyl-6,8-dihydro-7H-pyrrolo[2,3-g]quinazolin-7-one]	31 to 130	1 to 10	1 to 200
Cc1nc(N[C@H](C)c2cccc(C(F)(F)[C@@](C)(O)CO)c2F)c2cc3c(cc2n1)OC(C)(C)C(=O)N3C (single isomer, unassigned) [Compound 23a, 4-(((R/S)-1-(3-((S/R)-1,1-difluoro-2,3-dihydroxy-2-methylpropyl)-2-fluorophenyl)ethyl)amino)-2,6,8,8-tetramethyl-6H-[1,4]oxazino[3,2-g]quinazolin-7(8H)-one]	1 to 30	1 to 10	1 to 200
Cc1nc(N[C@H](C)c2cccc(C(F)(F)C(C)(C)O)c2F)c2cc3c(cc2n1)N(C)C(C)C(=O)N3C (single isomer, unassigned) [Compound 27b]	1 to 30	1 to 10	1 to 200
Cc1nc(N[C@H](C)c2cccc(C(F)(F)CO)c2F)c2cc3c(cc2n1)O[C@@H](C)C(=O)N3C (single isomer, unassigned) [Compound 30a]	1 to 30	1 to 10	1 to 200
Cc1nc(N[C@H](C)c2cccc(C(F)(F)CO)c2F)c2cc3c(cc2n1)OC(C)C(=O)N3C (single isomer, unassigned) [Compound 30b]	1 to 30	1 to 10	1 to 200
Cc1nc(N[C@H](C)c2cccc(C(F)(F)C(C)(C)O)c2F)c2cc3c(cc2n1)O[C@@H](C)C(=O)N3C (single isomer, unassigned) [Compound 31a]	1 to 30	1 to 10	1 to 200
Cc1nc(N[C@H](C)c2cccc(C(F)(F)C(C)(C)O)c2F)c2cc3c(cc2n1)OC(C)C(=O)N3C (single isomer, unassigned) [Compound 31b]	1 to 30	1 to 10	1 to 200
Cc1nc(N[C@H](C)c2cccc(C(F)(F)C(C)(C)O)c2F)c2cc3c(cc2n1)OC(C(C)C)C(=O)N3C (single isomer, unassigned) [Compound 32b]	1 to 30	1 to 10	1 to 200
Cc1nc(N[C@H](C)c2cccc(C(F)(F)CO)c2F)c2cc3c(cc2n1)OC(C)CN3C (single isomer, unassigned) [Compound 36b]	1 to 30	1 to 10	1 to 200
COCC(C)(O)C(F)(F)c1cccc([C@@H](C)Nc2nc(C)nc3cc4c(cc23)N(C)C(=O)C(C)(C)O4)c1F (single isomer, unassigned) [Compound 53b]	1 to 30	11 to 25	1 to 200
Cc1nc(NC(C)c2cccc(C(F)(F)C(C)(C)O)c2)c2cc3c(cc2n1)C(C)(C)C(=O)N3C (single isomer, unassigned) [Compound 73, (R/S)-4-((1-(3-(1,1-difluoro-2-hydroxy-2-methylpropyl)phenyl)ethyl)amino)-2,6,8,8-tetramethyl-6,8-dihydro-7H-pyrrolo[2,3-g]quinazolin-7-one]	1 to 30	1 to 10	1 to 200
